Laboratory results from publication PMC10810651, “Discovery of novel and potent CDK8 inhibitors for the treatment of acute myeloid leukaemia” (Journal of Enzyme Inhibition and Medicinal Chemistry, 2024).

Legend:
CDK7 = CDK7 (Homo sapiens, UniProt P50613); test: CDKs selectivity, CDK7; format: biochemical
Text: CDK7 and CDK9 with the same transcription function and CDK2 and CDK6 were selected to evaluate the selectivity of compound 12.

STAT5 S726 = test: Phosphorylation of STAT5 S726, western blot; format: cell-based; details: HL-60 cells, 12 h
Method: It has been reported that CDK8 could specifically target the transactivation domain of STAT1 at Ser727 phosphorylation. HCT-116 cells were treated with compounds 12 with different concentrations of 1 μM, 2 μM, 4 μM separately to verify compound 12 could inhibit the phosphorylation of STAT1 Ser727. […] It’s reported that CDK8 was also involved in S726 phosphorylation of STAT5 in AML cells.
Figure 6. Compound 12 inhibited phosphorylation of STAT1 S727 and STAT5 S726. (A) Compound 12 suppressed the phosphorylation of STAT1 S727 in a dose-dependent manner. HCT-116 cells were treated with compound for 12 h. (B) Compound 12 suppressed the phosphorylation of STAT5 S726 in a dose dependent manner. HL-60 cells were treated with or without compound for 12 h. The samples were analysed by Western blot.
1.7 The effect of compound on phosphorylation of STAT1 S727
HCT-116 cells were seeded into 60 mm cultural dishes at a density of 1.5×10^6 cells per dishes. […] Levels of total STAT1, phosphorylated STAT1 S727, Y701 and GAPDH were analyzed. […]
Levels of total STAT5, phosphorylated STAT5 S726 and GAPDH were analyzed.
The results were expressed as the means ± SEMs (SPSS software), and the differences between groups were evaluated using Turkey’s method (GraphPad Software). […]

Chain of CDK7 (P50613 whole entry): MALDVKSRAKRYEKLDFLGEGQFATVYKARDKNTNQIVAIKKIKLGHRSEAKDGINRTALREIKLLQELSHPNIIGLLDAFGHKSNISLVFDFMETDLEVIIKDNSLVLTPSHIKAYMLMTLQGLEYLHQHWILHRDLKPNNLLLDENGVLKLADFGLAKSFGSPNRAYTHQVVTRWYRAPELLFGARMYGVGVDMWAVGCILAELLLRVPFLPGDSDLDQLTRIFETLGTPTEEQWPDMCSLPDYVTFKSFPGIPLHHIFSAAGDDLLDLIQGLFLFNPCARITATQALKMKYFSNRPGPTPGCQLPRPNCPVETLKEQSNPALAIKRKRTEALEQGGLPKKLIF
Chain of CDK7 (P51946 whole entry partner): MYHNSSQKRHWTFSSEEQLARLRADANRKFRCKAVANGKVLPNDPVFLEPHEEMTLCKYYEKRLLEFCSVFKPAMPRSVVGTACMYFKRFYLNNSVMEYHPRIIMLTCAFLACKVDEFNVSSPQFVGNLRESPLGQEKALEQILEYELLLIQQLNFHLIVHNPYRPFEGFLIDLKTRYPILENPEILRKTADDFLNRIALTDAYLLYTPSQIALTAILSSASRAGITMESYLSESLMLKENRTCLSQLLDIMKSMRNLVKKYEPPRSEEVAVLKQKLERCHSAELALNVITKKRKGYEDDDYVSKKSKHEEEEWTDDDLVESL
Chain of CDK7 (P51948 whole entry partner): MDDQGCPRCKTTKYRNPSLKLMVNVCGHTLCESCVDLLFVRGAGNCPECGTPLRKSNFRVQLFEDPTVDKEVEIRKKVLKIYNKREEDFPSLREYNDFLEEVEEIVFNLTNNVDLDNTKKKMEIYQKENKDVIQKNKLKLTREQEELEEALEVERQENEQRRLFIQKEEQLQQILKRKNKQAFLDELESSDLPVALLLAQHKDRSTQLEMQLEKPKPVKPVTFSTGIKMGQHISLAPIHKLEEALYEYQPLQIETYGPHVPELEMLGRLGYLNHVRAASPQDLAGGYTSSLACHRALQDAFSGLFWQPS

Q: For NC(=O)c1cccc(-c2cnc3[nH]cc(-c4ccoc4)c3c2)c1 [Compound 12, 3-(3-(furan-3-yl)-1H-pyrrolo[2,3-b]pyridin-5-yl)benzamide], which IC50 (CDK7) is on record?
A: The IC50 was 0.301 ± 0.0278 µM.

Q: What about the “Phosphorylation of STAT5 S726” value (STAT5 S726) of the same compound?
A: Its value is “could inhibit phosphorylation of STAT5 S726 in a dose-dependent manner”.
